# Patent US8106055B2, “Substituted amide compounds” (Gruenenthal GmbH, priority 2007, dated 2012)
# Target: T1, human μ opiate receptor (Homo sapiens, UniProt P35372)
# T1 construct: purchased PerkinElmer Life Sciences, Zaventem, Belgium RB-HOM; host or cells: CHO-K1 cells (membrane preparation)
# Test: Affinity for the human μ opiate receptor ([3H]-naloxone displacement, CHO-K1 receptor membrane preparation, SPA)
# Format: binding
# Conditions: 1.5 h, Table 2; test concentration 1 μM; read-out: μ receptor
# Method in brief: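 SPA, CHO-K1 hμ membranes; 1 nmol/l [3H]-naloxone; Tris-HCl 50 mmol/l + 0.06% BSA; 90 min RT; NSB with 100 μmol/l naloxone; β-counting. Readout: % inhibition of specific binding at 1 μM test compound.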
# T1 sequence (P35372 whole entry): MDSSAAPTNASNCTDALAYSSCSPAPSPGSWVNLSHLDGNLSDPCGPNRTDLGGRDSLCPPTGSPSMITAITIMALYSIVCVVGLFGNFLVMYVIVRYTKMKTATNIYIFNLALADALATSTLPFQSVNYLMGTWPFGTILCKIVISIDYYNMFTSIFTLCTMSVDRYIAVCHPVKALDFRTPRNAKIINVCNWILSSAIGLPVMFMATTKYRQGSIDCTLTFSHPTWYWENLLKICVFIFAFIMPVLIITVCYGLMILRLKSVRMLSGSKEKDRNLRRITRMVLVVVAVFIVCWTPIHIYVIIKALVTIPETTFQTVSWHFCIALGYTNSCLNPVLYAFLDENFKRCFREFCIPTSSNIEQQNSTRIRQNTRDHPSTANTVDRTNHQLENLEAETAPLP
row,SMILES,inhibition at 1 µM
1,"CN(C)C(c1ccccc1)C1CCC(CNC(=O)COCCN(C)S(=O)(=O)c2c(Cl)cc(Cl)cc2Cl)CC1 (stereo not shown) [Example 614, N-[4-(dimethylaminophenylmethyl)-cyclohexylmethyl]-2-{2-[(2,4,6-trichlorobenzenesulfonyl)-methylamino]-ethoxy}-acetamide]",96%
2,"CN(CCOCC(=O)NC1CCC(C(c2ccccc2)N2CCCC2)CC1)S(=O)(=O)c1c(Cl)cc(Cl)cc1Cl (stereo not shown) [Example 606, 2-{2-[methyl-(2,4,6-trichlorobenzenesulfonyl)-amino]-ethoxy}-N-[4-(phenylpyrrolidin-1-yl-methyl)-cyclohexyl]-acetamide]",46%

# Same assay, conditions: test concentration of 1 μM
row,SMILES,"μ (binding on the μ opioid receptor, % inhibition)"
1,COc1cc(C)c(S(=O)(=O)N2CCC(OCC(=O)NC3CCC(C(c4cccc(F)c4)N(C)C)CC3)C2)c(C)c1 (stereo not shown) [Example 251],77%
2,Cc1ccc(S(=O)(=O)N(C)CCOCC(=O)NCCC2CCC(C(c3cccc(F)c3)N(C)C)CC2)cc1 (stereo not shown) [Example 240],74%
3,CN(C)C(c1cccc(F)c1)C1CCC(CCNC(=O)COCCN(C)S(=O)(=O)c2ccc(OC(F)(F)F)cc2)CC1 (stereo not shown) [Example 215],85%
4,CN(C)C(c1cccc(F)c1)C1CCC(NC(=O)COC2CCN(S(=O)(=O)c3ccc(Cl)cc3)C2)CC1 (stereo not shown) [Example 204],81%
5,COc1cc(C)c(S(=O)(=O)N(C)CCOCC(=O)NCC2CCC(C(c3cccc(F)c3)N(C)C)CC2)c(C)c1 (stereo not shown) [Example 248],81%
